In patent US10966978B2, “Dose and regimen for HDM2-p53 interaction inhibitors” (Novartis AG, priority 2016, dated 2021):
Where two headings read alike, the source gives them in different places.

Tested on: patients with advanced TP53 wild-type (WT) leukemias
Description: Patients with Ph+ ALL who show early markers of relapse in MRD surveillance can be considered for inclusion as long as other therapies such as TKIs are exhausted or cannot be given. • Tumor of the patient is TP53 wt characterized by, at a minimum, no mutations in exons 5, 6, 7 and 8, and the p53 status was obtained from a bone-marrow sample, collected no longer than 3 months before signing the main ICF. Safety and Tolerability Profile of Regimen 1B in Hematological Tumors

COc1ncc(-c2nc3c(n2C(C)C)[C@H](c2ccc(Cl)cc2)N(c2cc(Cl)cn(C)c2=O)C3=O)c(OC)n1 [HDM201, (S)-5-(5-Chloro-1-methyl-2-oxo-1,2-dihydro-pyridin-3-yl)-6-(4-chloro-phenyl)-2-(2,4-dimethoxy-pyrimidin-5-yl)-1-isopropyl-5,6-dihydro-1H-pyrrolo[3,4-d]imidazol-4-one]
4 (50.0) n (%): AE: Decreased Appetite (Regimen 2C N = 8, All Grades)
5 (62.5) n (%): AE: Anaemia (Regimen 2C N = 8, All Grades)
1 (14.3) n (%): AE: Neutropenia/Neutrophil Count Decreased (Regimen 2A N = 7, Grade 3/4) | AE: Tumour Lysis Syndrome (Regimen 2A N = 7, Grade 3/4) | AE: White Blood Cell Count Decreased (Regimen 2A N = 7, Grade 3/4)
0 n (%): AE: Haemoglobin Decreased (Regimen 2A N = 7, Grade 3/4) | AE: Headache (Regimen 2A N = 7, Grade 3/4) | AE: Hyperbilirubinaemia (Regimen 2A N = 7, Grade 3/4) | AE: Hyperglycaemia (Regimen 2A N = 7, Grade 3/4) | AE: Hyperkalaemia (Regimen 2A N = 7, Grade 3/4) | AE: Hyperphosphataemia (Regimen 2A N = 7, Grade 3/4) | AE: Hyperuricaemia (Regimen 2A N = 7, Grade 3/4) | AE: Hypoalbuminaemia (Regimen 2A N = 7, Grade 3/4) | AE: Hypocalcaemia (Regimen 2A N = 7, Grade 3/4) | AE: Hypokalaemia (Regimen 2A N = 7, Grade 3/4) | AE: Hypomagnesaemia (Regimen 2A N = 7, Grade 3/4) | AE: Hyponatraemia (Regimen 2A N = 7, Grade 3/4) | AE: Hypophosphataemia (Regimen 2A N = 7, Grade 3/4) | AE: Hypotension (Regimen 2A N = 7, Grade 3/4) | AE: Infection (Regimen 2A N = 7, Grade 3/4) | AE: Infective Glossitis (Regimen 2A N = 7, Grade 3/4) | AE: Iron Overload (Regimen 2A N = 7, Grade 3/4) | AE: Leukopenia (Regimen 2A N = 7, Grade 3/4) | AE: Lip Oedema (Regimen 2A N = 7, Grade 3/4) | AE: Lipase Increased (Regimen 2A N = 7, Grade 3/4) | AE: Macular Oedema (Regimen 2A N = 7, Grade 3/4) | AE: Malaise (Regimen 2A N = 7, Grade 3/4) | AE: Mouth Haemorrhage (Regimen 2A N = 7, Grade 3/4) | AE: Nausea (Regimen 2A N = 7, Grade 3/4) | AE: Oedema (Regimen 2A N = 7, Grade 3/4) | AE: Oedema Peripheral (Regimen 2A N = 7, Grade 3/4) | AE: Oral Disorder (Regimen 2A N = 7, Grade 3/4) | AE: Pain In Extremity (Regimen 2A N = 7, Grade 3/4) | AE: Pancytopenia (Regimen 2A N = 7, Grade 3/4) | AE: Pneumonia (Regimen 2A N = 7, Grade 3/4) | AE: Pollakiuria (Regimen 2A N = 7, Grade 3/4) | AE: Pyrexia (Regimen 2A N = 7, Grade 3/4) | AE: Rash (Regimen 2A N = 7, Grade 3/4) | AE: Rash Erythematous (Regimen 2A N = 7, Grade 3/4) | AE: Rash Papular (Regimen 2A N = 7, Grade 3/4) | AE: Rectal Haemorrhage (Regimen 2A N = 7, Grade 3/4) | AE: Renal Failure (Regimen 2A N = 7, Grade 3/4) | AE: Skin Exfoliation (Regimen 2A N = 7, Grade 3/4) | AE: Stomatitis (Regimen 2A N = 7, Grade 3/4) | AE: Subarachnoid Haemorrhage (Regimen 2A N = 7, Grade 3/4) | AE: Vomiting (Regimen 2A N = 7, Grade 3/4) | AE: Weight Decreased (Regimen 2A N = 7, Grade 3/4) | AE: Abdominal Discomfort (Regimen 2C N = 8, All Grades) | AE: Abdominal Pain (Regimen 2C N = 8, All Grades) | AE: Abdominal Pain Upper (Regimen 2C N = 8, All Grades) | AE: Amylase Increased (Regimen 2C N = 8, All Grades) | AE: Arthralgia (Regimen 2C N = 8, All Grades) | AE: Atrial Fibrillation (Regimen 2C N = 8, All Grades) | AE: Atypical Pneumonia (Regimen 2C N = 8, All Grades) | AE: Balanitis Candida (Regimen 2C N = 8, All Grades) | AE: Blood Alkaline Phosphatase Increased (Regimen 2C N = 8, All Grades) | AE: Blood Bilirubin Increased (Regimen 2C N = 8, All Grades) | AE: Blood Phosphorus Increased (Regimen 2C N = 8, All Grades) | AE: Blood Uric Acid Increased (Regimen 2C N = 8, All Grades) | AE: Bone Marrow Failure (Regimen 2C N = 8, All Grades) | AE: C-Reactive Protein Increased (Regimen 2C N = 8, All Grades) | AE: Cardiac Failure (Regimen 2C N = 8, All Grades) | AE: Cellulitis (Regimen 2C N = 8, All Grades) | AE: Chronic Graft Versus Host Disease (Regimen 2C N = 8, All Grades) | AE: Conjunctival Haemorrhage (Regimen 2C N = 8, All Grades) | AE: Cough (Regimen 2C N = 8, All Grades) | AE: Cystitis Viral (Regimen 2C N = 8, All Grades) | AE: Cytomegalovirus Infection (Regimen 2C N = 8, All Grades) | AE: Dyspepsia (Regimen 2C N = 8, All Grades) | AE: Dyspnoea (Regimen 2C N = 8, All Grades) | AE: Gamma-Glutamyltransferase Increased (Regimen 2C N = 8, All Grades) | AE: General Physical Health Deterioration (Regimen 2C N = 8, All Grades) | AE: Gingival Bleeding (Regimen 2C N = 8, All Grades) | AE: Graft Versus Host Disease (Regimen 2C N = 8, All Grades) | AE: Haemoglobin Decreased (Regimen 2C N = 8, All Grades) | AE: Headache (Regimen 2C N = 8, All Grades) | AE: Hyperbilirubinaemia (Regimen 2C N = 8, All Grades) | AE: Hyperglycaemia (Regimen 2C N = 8, All Grades) | AE: Hyperkalaemia (Regimen 2C N = 8, All Grades) | AE: Hypoalbuminaemia (Regimen 2C N = 8, All Grades) | AE: Hypocalcaemia (Regimen 2C N = 8, All Grades) | AE: Hypokalaemia (Regimen 2C N = 8, All Grades) | AE: Hypomagnesaemia (Regimen 2C N = 8, All Grades) | AE: Hyponatraemia (Regimen 2C N = 8, All Grades) | AE: Hypophosphataemia (Regimen 2C N = 8, All Grades) | AE: Hypotension (Regimen 2C N = 8, All Grades) | AE: Infection (Regimen 2C N = 8, All Grades) | AE: Iron Overload (Regimen 2C N = 8, All Grades) | AE: Leukopenia (Regimen 2C N = 8, All Grades) | AE: Lip Oedema (Regimen 2C N = 8, All Grades) | AE: Lipase Increased (Regimen 2C N = 8, All Grades) | AE: Macular Oedema (Regimen 2C N = 8, All Grades) | AE: Malaise (Regimen 2C N = 8, All Grades) | AE: Mouth Haemorrhage (Regimen 2C N = 8, All Grades)
3 (37.5) n (%): AE: Febrile Neutropenia (Regimen 2C N = 8, All Grades)
1 (12.5) n (%): AE: Blood Creatinine Increased (Regimen 2C N = 8, All Grades) | AE: Constipation (Regimen 2C N = 8, All Grades) | AE: Epistaxis (Regimen 2C N = 8, All Grades) | AE: Hyperphosphataemia (Regimen 2C N = 8, All Grades) | AE: Infective Glossitis (Regimen 2C N = 8, All Grades)
2 (25.0) n (%): AE: Asthenia (Regimen 2C N = 8, All Grades) | AE: Diarrhoea (Regimen 2C N = 8, All Grades) | AE: Fatigue (Regimen 2C N = 8, All Grades)
3 (42.9) n (%): AE: Total (Regimen 2A N = 7, Grade 3/4)
2 (28.6) n (%): AE: Thrombocytopenia/Platelet Count Decreased (Regimen 2A N = 7, Grade 3/4)
